Experiments:
[1] = Stirring of fesoterodine base under distilled water, TLC of the aqueous phase; type: physicochemical; conditions: covered with distilled water, stirred two days at room temperature
Protocol: Fesoterodine (107.7 mg (R)-2-(3-Diisopropylamino-1-phenylpropyl)-4-hydroxymethylphenyl isobutyric acid ester, B) is covered with a layer distilled water and stirred at room temperature. After two days of stirring, the reaction batch remains unchanged two-phase.

[2] = Storage stability of fesoterodine base as oil and in polymer matrices; type: physicochemical; conditions: storage for 6 months at 5° C.
Protocol: While, for example, the free base of fesoterodine is decomposed as an oil after storage for 6 months at 5° C. to around 3-4%, a drop in concentration cannot be established or only established essentially to a lesser extent when fesoterodine is incorporated in matrices, which contain polar components. [table]

Compound: CC(C)C(=O)Oc1ccc(CO)cc1[C@H](CCN(C(C)C)C(C)C)c1ccccc1 [free base of fesoterodine, (R)-2-[3-(1,1-diisopropylamino)-1-phenylpropyl]-4-(hydroxymethyl)phenyl isobutyrate]
- Organic material detectable in the aqueous phase by thin layer chromatography [1]: No organic material (B or E) could be detected
- Decomposition during storage as an oil [2]: 3-4%

Source: patent publication US7989654B2, “High purity bases of 3,3-diphenylpropylamino monoesters” (UCB Pharma GmbH, priority 2003, dated 2011)
